For orientation: pEC50 means the negative decadic logarithm of the EC50, by convention in mol/L.

1 compound from ChEMBL document CHEMBL5726498, “Substituted benzothiophenyl derivatives as GPR40 agonists for the treatment of type II diabetes” (2017) can be followed below.

The target of the experiment is Free fatty acid receptor 1 (Homo sapiens, UniProt O14842). The experiment in a line: Calcium Flux Assay: Compounds were tested in a calcium flux assay using transfected HEK293 cells stably expressing either human GPR40 or rat GPR40. Human GPR40 expressing cells were cultured in DMEM-High Glucose media supplemented with 10% fetal bovine serum, 1×L-Glutamine, 1× Penicillin/Streptomycin and 500 μg/mL G418. Rat GPR40 expressing cells were cultured in DMEM-High Glucose media supplemented with 10% fetal bovine serum and 1 μg/mL puromycin. Cells were plated into poly-D-lysine coated 384-well plates and cultured overnight in a 37° C. humidified tissue culture incubator under 5% CO2/[…] atmosphere. On the day of the experiment, the culture media was replaced with assay buffer (HBSS, 20 mM HEPES, 0.1% BSA) and the cells incubated at 37° C. for 1 h. Calcium-sensitive fluorescent dye (Fluo 8 No-Wash Calcium Dye, ABD Bioquest) was then added and the cells incubated for another 30 min at 37° C. followed by 15 min at room temperature while protected from the light. The cell plate and a plate of diluted compounds of Formula (I) were loaded into a fluorescent plate reader that added compounds onto the cells while measuring the fluorescence intensity of each well. For orientation: Calcium flux is commonly read through the fluorescence of an indicator in the cells.
Sequence of Free fatty acid receptor 1 (O14842 whole entry): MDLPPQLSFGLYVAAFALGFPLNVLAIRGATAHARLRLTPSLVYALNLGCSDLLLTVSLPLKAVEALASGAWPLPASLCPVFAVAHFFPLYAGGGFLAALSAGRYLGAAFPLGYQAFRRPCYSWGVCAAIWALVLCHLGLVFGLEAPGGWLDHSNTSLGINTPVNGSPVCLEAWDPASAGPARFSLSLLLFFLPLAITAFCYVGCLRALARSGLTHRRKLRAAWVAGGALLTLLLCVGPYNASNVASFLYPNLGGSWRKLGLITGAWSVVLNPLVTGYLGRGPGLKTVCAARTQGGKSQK

pEC50: −log10 of the molar value.

Consider `CC#C[C@@H](CC(=O)O)c1ccc(OCc2ccc3scc(-c4ccccc4S(C)(=O)=O)c3c2)cc1`, for which the pEC50 was 7.82.
